Results on seven compounds are retold here after ChEMBL document CHEMBL1145498, “A systematic interaction map of validated kinase inhibitors with Ser/Thr kinases” (Proc Natl Acad Sci U S A, 2007).

The target in experiment [1] is Calcium/calmodulin-dependent protein kinase type 1D (Homo sapiens) (UniProt Q8IU85).
For experiment [2], the target named is Cyclin-dependent kinase 6 (Homo sapiens) (UniProt Q00534).
The target in experiment [3] is Cyclin-dependent kinase-like 1 (Homo sapiens) (UniProt Q00532).
The target of experiment [4] is T1, Dual specificity mitogen-activated protein kinase kinase 6 (Homo sapiens) (UniProt P52564).
T1 sequence (whole entry): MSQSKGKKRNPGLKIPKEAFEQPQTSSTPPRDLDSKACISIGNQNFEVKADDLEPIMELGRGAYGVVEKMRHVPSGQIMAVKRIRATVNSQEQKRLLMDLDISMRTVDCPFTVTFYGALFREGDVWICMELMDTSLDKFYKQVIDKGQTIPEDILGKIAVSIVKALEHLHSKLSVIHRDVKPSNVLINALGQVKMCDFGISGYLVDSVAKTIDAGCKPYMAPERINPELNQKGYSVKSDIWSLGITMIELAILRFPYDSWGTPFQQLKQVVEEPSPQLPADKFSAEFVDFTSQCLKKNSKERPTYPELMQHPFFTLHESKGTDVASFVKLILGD

Experiment [5] deals with Mitogen-activated protein kinase 11 (Homo sapiens, UniProt Q15759).
Experiment [6] addresses Mitogen-activated protein kinase 3 (Homo sapiens, UniProt P27361).
The target in experiment [7] is Serine/threonine-protein kinase 26 (Homo sapiens) (UniProt Q9P289).
Experiment [8] addresses T2, Serine/threonine-protein kinase Nek2 (Homo sapiens) (UniProt P51955).
T2 sequence (whole entry): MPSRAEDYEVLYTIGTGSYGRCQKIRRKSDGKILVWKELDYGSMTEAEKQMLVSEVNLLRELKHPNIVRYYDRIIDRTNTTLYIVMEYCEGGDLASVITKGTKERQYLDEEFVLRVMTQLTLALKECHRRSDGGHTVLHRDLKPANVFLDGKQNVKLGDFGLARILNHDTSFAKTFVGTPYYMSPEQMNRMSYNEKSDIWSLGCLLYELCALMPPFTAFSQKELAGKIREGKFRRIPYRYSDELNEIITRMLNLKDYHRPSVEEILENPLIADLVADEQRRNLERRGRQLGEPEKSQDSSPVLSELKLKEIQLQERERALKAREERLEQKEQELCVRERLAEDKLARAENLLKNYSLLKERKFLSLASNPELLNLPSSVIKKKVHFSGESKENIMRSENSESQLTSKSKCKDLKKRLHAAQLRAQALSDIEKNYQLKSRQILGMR

The target of experiment [9] is Serine/threonine-protein kinase PAK 4 (Homo sapiens) (UniProt O96013).
Experiment [10] addresses Serine/threonine-protein kinase PAK 5 (Homo sapiens) (UniProt Q9P286).
For experiment [11], the target named is Cyclin-dependent kinase 16 (Homo sapiens) (UniProt Q00536).
Experiment [12] deals with Serine/threonine-protein kinase pim-3 (Homo sapiens) (UniProt Q86V86).
In experiment [13] the target is Ribosomal protein S6 kinase alpha-3 (Homo sapiens) (UniProt P51812).
The target in experiment [14] is Serine/threonine-protein kinase 16 (Homo sapiens) (UniProt O75716).
The target in experiment [15] is T3, Serine/threonine-protein kinase 17A (Homo sapiens) (UniProt Q9UEE5).
T3 sequence (whole entry): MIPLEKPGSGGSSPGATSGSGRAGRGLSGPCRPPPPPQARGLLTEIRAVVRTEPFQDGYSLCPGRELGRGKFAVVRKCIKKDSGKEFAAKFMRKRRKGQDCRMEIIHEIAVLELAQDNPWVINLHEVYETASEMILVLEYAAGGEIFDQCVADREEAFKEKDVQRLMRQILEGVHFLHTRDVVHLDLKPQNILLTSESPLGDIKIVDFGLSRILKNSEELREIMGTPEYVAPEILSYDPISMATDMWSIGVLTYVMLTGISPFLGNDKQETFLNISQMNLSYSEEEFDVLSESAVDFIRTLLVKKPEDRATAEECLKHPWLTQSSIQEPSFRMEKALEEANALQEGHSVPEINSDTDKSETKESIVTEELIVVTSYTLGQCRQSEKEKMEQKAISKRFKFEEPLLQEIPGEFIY

The target of experiment [16] is Serine/threonine-protein kinase 38 (Homo sapiens) (UniProt Q15208).
Experiment [17] deals with T4, Serine/threonine-protein kinase 4 (Homo sapiens) (UniProt Q13043).
T4 sequence (whole entry): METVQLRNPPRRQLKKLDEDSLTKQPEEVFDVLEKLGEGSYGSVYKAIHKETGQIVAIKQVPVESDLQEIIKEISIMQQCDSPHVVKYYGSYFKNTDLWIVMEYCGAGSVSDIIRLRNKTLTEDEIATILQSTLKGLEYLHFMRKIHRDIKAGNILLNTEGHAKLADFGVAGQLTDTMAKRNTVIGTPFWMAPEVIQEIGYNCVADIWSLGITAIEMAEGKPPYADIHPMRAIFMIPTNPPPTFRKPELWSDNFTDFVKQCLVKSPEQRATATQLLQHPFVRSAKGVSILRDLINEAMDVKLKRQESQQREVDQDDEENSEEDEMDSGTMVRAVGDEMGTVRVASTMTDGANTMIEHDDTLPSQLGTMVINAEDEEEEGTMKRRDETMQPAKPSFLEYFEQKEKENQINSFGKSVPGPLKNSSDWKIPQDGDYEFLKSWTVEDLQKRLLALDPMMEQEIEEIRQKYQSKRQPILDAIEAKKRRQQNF

The target of experiment [18] is T5, Lymphokine-activated killer T-cell-originated protein kinase (Homo sapiens) (UniProt Q96KB5).
T5 sequence (whole entry): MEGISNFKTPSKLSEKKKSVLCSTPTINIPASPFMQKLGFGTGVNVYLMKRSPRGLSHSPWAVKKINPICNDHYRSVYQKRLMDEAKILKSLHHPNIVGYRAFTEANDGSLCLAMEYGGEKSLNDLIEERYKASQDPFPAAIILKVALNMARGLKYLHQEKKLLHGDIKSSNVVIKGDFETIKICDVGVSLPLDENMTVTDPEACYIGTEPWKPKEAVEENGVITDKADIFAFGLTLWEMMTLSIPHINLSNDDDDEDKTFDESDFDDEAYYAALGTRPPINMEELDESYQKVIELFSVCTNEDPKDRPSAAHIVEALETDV

Each structure is given as a SMILES string.

Sequence of Serine/threonine-protein kinase PAK 4 (Homo sapiens) (O96013 whole entry, looked up): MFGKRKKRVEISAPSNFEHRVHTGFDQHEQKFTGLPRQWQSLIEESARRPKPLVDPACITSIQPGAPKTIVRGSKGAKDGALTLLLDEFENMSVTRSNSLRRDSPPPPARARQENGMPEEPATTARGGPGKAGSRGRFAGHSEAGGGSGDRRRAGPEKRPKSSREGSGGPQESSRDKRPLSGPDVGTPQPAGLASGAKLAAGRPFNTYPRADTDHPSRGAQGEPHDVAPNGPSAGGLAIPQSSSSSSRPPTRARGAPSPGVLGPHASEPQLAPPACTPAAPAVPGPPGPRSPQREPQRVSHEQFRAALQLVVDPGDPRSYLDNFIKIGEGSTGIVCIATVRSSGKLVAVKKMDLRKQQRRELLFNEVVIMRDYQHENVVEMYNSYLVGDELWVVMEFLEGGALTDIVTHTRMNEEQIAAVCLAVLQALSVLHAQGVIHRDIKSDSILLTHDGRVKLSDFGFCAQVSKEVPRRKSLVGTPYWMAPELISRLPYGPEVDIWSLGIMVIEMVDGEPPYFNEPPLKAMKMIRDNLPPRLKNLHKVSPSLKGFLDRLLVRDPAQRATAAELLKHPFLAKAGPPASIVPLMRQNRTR
Sequence of Mitogen-activated protein kinase 3 (P27361 whole entry): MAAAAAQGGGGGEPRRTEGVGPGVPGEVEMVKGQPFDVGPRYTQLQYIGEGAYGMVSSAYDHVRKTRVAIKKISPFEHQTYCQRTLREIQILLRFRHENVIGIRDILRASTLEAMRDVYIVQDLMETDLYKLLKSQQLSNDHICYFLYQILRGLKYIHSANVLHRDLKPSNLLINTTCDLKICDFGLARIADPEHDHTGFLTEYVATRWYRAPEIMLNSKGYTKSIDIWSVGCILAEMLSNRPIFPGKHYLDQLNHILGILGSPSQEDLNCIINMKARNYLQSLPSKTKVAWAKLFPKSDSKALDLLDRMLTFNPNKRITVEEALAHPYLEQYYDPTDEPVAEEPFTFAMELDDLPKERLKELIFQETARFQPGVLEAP
Sequence of Calcium/calmodulin-dependent protein kinase type 1D (Homo sapiens) (Q8IU85 whole entry, looked up): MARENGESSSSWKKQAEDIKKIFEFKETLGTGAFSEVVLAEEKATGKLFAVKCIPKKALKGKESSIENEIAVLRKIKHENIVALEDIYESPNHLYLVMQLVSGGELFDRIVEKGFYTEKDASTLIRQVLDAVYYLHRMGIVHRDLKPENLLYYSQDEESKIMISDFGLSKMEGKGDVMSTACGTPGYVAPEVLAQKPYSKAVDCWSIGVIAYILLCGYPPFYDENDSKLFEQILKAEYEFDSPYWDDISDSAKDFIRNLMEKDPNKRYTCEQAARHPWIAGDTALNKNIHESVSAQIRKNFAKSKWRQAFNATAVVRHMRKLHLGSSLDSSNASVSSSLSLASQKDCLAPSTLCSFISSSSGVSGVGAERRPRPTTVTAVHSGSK
Sequence of Cyclin-dependent kinase-like 1 (Homo sapiens) (Q00532 whole entry): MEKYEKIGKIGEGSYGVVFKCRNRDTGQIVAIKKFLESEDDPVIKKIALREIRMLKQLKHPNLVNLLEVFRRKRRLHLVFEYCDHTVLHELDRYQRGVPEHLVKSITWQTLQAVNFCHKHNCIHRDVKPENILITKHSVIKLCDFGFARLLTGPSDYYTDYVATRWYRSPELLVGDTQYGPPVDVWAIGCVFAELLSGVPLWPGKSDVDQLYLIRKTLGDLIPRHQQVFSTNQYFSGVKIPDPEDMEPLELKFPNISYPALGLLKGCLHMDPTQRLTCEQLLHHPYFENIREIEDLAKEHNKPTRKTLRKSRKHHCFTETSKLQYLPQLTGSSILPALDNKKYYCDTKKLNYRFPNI
Sequence of Serine/threonine-protein kinase 26 (Homo sapiens) (Q9P289 2-416 limits assumed): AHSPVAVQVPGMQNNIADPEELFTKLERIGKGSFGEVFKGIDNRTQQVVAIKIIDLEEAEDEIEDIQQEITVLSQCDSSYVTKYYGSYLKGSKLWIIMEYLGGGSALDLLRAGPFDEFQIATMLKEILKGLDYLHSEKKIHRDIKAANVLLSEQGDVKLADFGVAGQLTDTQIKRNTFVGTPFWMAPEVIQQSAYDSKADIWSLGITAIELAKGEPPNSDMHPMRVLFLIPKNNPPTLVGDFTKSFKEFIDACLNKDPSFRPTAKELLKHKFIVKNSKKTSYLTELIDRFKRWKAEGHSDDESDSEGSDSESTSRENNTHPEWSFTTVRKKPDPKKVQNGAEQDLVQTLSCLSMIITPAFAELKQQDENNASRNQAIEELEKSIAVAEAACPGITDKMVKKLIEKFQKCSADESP
Sequence of Cyclin-dependent kinase 16 (Homo sapiens) (Q00536 whole entry): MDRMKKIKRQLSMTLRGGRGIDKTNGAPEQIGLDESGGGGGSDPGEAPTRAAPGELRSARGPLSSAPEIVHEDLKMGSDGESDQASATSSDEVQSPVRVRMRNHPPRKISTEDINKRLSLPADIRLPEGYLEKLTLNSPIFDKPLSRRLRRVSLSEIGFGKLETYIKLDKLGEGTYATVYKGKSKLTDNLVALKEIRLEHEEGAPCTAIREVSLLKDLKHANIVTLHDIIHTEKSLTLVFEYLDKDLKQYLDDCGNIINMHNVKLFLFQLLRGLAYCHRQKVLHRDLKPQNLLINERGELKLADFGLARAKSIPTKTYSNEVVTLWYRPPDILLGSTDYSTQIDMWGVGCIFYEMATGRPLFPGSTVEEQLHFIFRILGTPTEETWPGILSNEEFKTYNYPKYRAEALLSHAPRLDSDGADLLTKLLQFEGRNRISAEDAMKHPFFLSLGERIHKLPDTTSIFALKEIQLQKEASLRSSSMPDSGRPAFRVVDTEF
Sequence of Ribosomal protein S6 kinase alpha-3 (Homo sapiens) (P51812 whole entry): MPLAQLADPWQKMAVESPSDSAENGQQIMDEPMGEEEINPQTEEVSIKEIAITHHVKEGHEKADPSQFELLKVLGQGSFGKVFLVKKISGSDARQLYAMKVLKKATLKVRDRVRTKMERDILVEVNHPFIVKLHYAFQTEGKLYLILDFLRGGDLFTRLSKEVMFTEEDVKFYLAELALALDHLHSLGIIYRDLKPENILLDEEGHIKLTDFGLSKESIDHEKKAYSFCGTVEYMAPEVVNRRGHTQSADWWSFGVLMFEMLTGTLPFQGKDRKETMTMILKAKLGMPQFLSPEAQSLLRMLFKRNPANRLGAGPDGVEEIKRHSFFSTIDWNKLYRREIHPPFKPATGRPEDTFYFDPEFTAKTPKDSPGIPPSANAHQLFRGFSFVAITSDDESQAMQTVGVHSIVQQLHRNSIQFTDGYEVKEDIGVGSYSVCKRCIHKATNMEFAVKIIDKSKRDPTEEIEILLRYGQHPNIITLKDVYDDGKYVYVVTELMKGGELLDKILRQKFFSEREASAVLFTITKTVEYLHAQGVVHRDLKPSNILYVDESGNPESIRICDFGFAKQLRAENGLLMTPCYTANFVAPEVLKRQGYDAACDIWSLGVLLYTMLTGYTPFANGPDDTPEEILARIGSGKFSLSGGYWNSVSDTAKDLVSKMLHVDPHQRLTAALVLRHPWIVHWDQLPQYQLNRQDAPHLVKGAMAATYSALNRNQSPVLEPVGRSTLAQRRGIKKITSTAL
Sequence of Serine/threonine-protein kinase 16 (Homo sapiens) (O75716 whole entry): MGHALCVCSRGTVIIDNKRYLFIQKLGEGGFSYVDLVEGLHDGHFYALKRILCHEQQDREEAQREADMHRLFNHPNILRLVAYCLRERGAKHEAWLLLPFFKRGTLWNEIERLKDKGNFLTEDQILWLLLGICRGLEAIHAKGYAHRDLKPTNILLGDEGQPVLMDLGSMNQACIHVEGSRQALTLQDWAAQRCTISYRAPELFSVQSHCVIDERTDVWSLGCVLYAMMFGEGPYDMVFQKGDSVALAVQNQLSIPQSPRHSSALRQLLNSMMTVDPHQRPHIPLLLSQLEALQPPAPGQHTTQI
Sequence of Mitogen-activated protein kinase 11 (Q15759 whole entry): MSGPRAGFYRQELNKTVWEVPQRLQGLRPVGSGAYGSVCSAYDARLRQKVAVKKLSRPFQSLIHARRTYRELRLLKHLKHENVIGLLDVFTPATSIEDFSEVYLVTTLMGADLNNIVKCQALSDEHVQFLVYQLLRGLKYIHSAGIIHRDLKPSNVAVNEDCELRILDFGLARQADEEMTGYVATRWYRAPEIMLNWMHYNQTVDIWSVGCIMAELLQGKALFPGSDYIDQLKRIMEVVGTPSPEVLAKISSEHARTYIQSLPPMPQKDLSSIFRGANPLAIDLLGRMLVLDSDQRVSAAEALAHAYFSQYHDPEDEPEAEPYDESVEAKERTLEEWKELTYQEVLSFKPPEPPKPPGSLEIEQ
Sequence of Cyclin-dependent kinase 6 (Homo sapiens) (Q00534 whole entry): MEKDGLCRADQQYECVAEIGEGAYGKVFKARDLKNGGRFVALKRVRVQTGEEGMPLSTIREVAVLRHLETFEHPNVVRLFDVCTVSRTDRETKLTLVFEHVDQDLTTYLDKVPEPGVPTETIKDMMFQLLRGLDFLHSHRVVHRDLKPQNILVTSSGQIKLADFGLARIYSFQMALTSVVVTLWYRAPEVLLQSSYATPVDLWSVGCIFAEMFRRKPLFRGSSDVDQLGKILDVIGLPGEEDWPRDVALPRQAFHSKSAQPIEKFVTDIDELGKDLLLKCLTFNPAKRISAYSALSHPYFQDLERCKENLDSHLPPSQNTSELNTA

As for `O=C1Nc2ccc(I)cc2/C1=C1/Nc2ccccc2/C1=N\O`, the ΔTm (usually the change in melting temperature against a reference sample) was 0.1 °C in experiment [1]; 0.8 °C in [2]; 5.4 °C in experiment [3]; 1.5 °C in experiment [4]; 1.3 °C in experiment [5]; 2.1 °C in experiment [6]. Besides, the ΔTm in [7] was 4.5 °C; in [8], 1.4 °C; in experiment [9], 2.3 °C; in [10], 1.3 °C; in [11], 5.6 °C; in experiment [12], 6.3 °C. The ΔTm was 3.3 °C in experiment [13]; 1.9 °C in [14]; 7 °C in experiment [15]; 2 °C in experiment [16]; 9.5 °C in experiment [17]; -2.4 °C in [18].

Turning to `CCOc1cc(/C=C(\C#N)C(N)=O)cc(CSc2ccccc2)c1O`, the ΔTm in [1] was -0.2 °C; in [2] it was 0 °C; in [3], -0.1 °C; in experiment [4] it was 1.6 °C; in experiment [5] it was -0.3 °C; in experiment [6], 0.2 °C. The thermal shift (ΔTm) was -0.3 °C in experiment [7]; 0.3 °C in [8]; -0.5 °C in [9]; 0 °C in experiment [10]; -0.5 °C in [11]; 1.5 °C in experiment [12]. For the same compound, the ΔTm in [13] turned out to be 0.1 °C; in experiment [14], 1 °C; in [15] it was 0.6 °C; in experiment [16] it was 0.3 °C; in experiment [17], 0.4 °C; in experiment [18], 0.5 °C.

As to `NC1=NC(=O)/C(=C2\CCNC(=O)c3[nH]c(Br)cc32)N1` [HYMENIALDISINE], the shift in melting temperature (ΔTm) in experiment [1] came out at 0 °C; in experiment [2] it was 1.1 °C; in [3], 0.6 °C; in experiment [4], 0.6 °C; in [5], 0.1 °C; in experiment [6], 0.9 °C. Also, the ΔTm is 4 °C in experiment [7]; 0.8 °C in experiment [8]; 1.6 °C in [9]; 0.4 °C in [10]; 0.1 °C in experiment [11]; 3.8 °C in [12]. Besides, the ΔTm is 6.3 °C in experiment [13]; 1.5 °C in [14]; 14.8 °C in [15]; 1 °C in [16]; 5.2 °C in [17]; 0.1 °C in experiment [18].

Take `Cc1ccc(NC(=O)c2ccc(CN3CCN(C)CC3)cc2)cc1Nc1nccc(-c2cccnc2)n1`: the ΔTm in [1] is 0.4 °C; in [2], 0.2 °C; in [3], 0.3 °C; in experiment [4], 0.4 °C; in experiment [5] it was -0.5 °C; in experiment [6], 0.6 °C. For the same compound, the ΔTm in [7] is 1 °C; in experiment [8], -0.8 °C; in experiment [9] it was 0.4 °C; in experiment [10], -0.6 °C; in [11], -0.4 °C; in experiment [12] it was 0.2 °C. The shift in melting temperature (ΔTm) was -0.4 °C in experiment [13]; 2.9 °C in experiment [14]; 1.3 °C in [15]; 0.7 °C in experiment [16]; 0.2 °C in [17]; 0.8 °C in [18].

For the compound `O=C(O)Cc1ccc(O)c([N+](=O)[O-])c1`, the ΔTm in [1] is 0 °C; in experiment [2] it was 0.1 °C; in experiment [3] it was 1.2 °C; in [4] it was 0 °C; in experiment [5], 0.8 °C; in experiment [6], -0.2 °C. In addition, the ΔTm is -0.4 °C in experiment [7]; 1.9 °C in experiment [8]; 1.2 °C in experiment [9]; 0.1 °C in [10]; -1.2 °C in experiment [11]; 0.1 °C in [12]. For the same compound, the ΔTm in experiment [13] was 1.1 °C; in [14] it was 0.4 °C; in experiment [15], -0.5 °C; in [16] it was 2 °C; in experiment [17], 0.4 °C; in experiment [18] it was 0.6 °C.

For the compound `C#Cc1cccc(Nc2ncnc3cc(OCCOC)c(OCCOC)cc23)c1`, the ΔTm in experiment [1] was 0.1 °C; in experiment [2] it was 0.5 °C; in [3], 0 °C; in [4], 0.2 °C; in experiment [5], 0 °C; in [6], -0.3 °C. In addition, the ΔTm in experiment [7] was -0.4 °C; in experiment [8], 1 °C; in experiment [9], 1.6 °C; in experiment [10], 0.1 °C; in experiment [11] it was -0.4 °C; in [12], -0.1 °C. The ΔTm was 6.3 °C in experiment [13]; 0.7 °C in experiment [14]; 0.3 °C in experiment [15]; -0.3 °C in experiment [16]; 0.5 °C in experiment [17]; 0.7 °C in experiment [18].

On to `OC[C@H]1O[C@@H](n2cnc3cc(Cl)c(Cl)cc32)[C@H](O)[C@@H]1O`, for which the ΔTm in [1] was 0 °C; in experiment [2], -0.3 °C; in [3], -0.2 °C; in [4] it was 0.2 °C; in experiment [5] it was 0 °C; in experiment [6] it was 0.4 °C. In addition, the ΔTm is -0.3 °C in experiment [7]; 0.5 °C in experiment [8]; -0.9 °C in experiment [9]; 0.2 °C in [10]; -0.3 °C in experiment [11]; 3.1 °C in [12]. Further, the ΔTm was 0 °C in [13]; 1.1 °C in [14]; 2.1 °C in experiment [15]; 0.2 °C in experiment [16]; 0.2 °C in [17]; 0.6 °C in experiment [18].
